{
  "source": "patent US7897723B2",
  "about": "“ErbB receptor-derived peptide fragments” (Københavns Universitet, priority 2006, dated 2011)",
  "key": {"[1]": {"target": "T1, ErbB1 (Homo sapiens, UniProt P00533)", "test": "ErbB receptor phosphorylation, NR6 wtEGFR cells", "format": "cell-based", "design": "expressed in transfected cells; host or cells: NR6 fibroblastoid cells (NR6 wtEGFR)", "settings": "10 ng/ml EGF for 10 min, immunoblotting (FIG. 7)", "description": "The cells employed for this assay were NR6 wtEGFR cells, which are fibroblastoid cells stably transfected with ErbB1, and human head and neck tumor-derived HN5 cell. Confluent NR6 wtEGFR or HN5 cells were treated with peptide in the indicated concentrations for 30 min, then stimulated with 10 ng/ml EGF (Sigma-Aldrich, St. Louis, Mo., USA) for 10 min. Cells were lysed in lysis buffer (1% (v/v) Triton X-100, 150 mM NaCl, 10 mM Tris pH 7.4, 1 mM EDTA, 1 mM EGTA, 0.5% (v/v) NP-40, phosphatase inhibitors (Phosphatase Inhibitor Cocktail Set II from Calbiochem, La Jolla, Calif., USA) and protease inhibitors (Complete™ Protease Inhibitor Cocktail from Boehringer Mannheim Biochemica, Mannheim, Germany)), and cleared lysate samples containing equal amounts of total protein (as determined by a bicinchoninic acid assay (Pierce, Rockford, Ill., USA)) were subjected in duplicates to 4-12% SDS-PAGE and immunoblotting. […] The intensity of bands was quantified using densitometric analysis employing the software package GeneTools (Syngene, Cambridge, UK).\nNR6 wtEGFR cells (a fibroblastoid cell line stably transfected with ErbB1) were treated with peptide in the indicated concentrations for […], then stimulated with 10 ng/ml EGF for 10 min. […] The intensity of bands was quantified using densitometric analysis employing the software package GeneTools (Syngene, Cambridge, UK)."}, "[2]": {"tested_on": "HN5 cells", "test": "Cell viability / cell growth (MTS staining)", "format": "cell-based, human", "settings": "HN5 cells", "description": "2000 HN5 cells per well were seeded in a 96 well plate in full medium (containing 10% fetal calf serum) or starvation medium (serum-free). After 12 hours of incubation, peptides or ErbB1 kinase inhibitor PD153035 (Calbiochem) and/or EGF (Sigma-Aldrich) were added in the concentrations indicated in figures. Cells were grown for 72 hours, then 20 μl MTS One Solution Reagent (Promega, Madison, Wis., USA) were added per 100 μl culture medium in each well, and the plates were incubated for 1-2 hours at 37° C., followed by absorbance measurements at 490 nm."}, "[3]": {"target": "T1, ErbB1", "test": "ErbB receptor phosphorylation, HN5 cells", "format": "cell-based", "design": "the ErbB1 overexpressing human head and neck cancer cell line HN5; endogenous in cells; host or cells: HN5 human head and neck cancer cells", "settings": "100 μM peptide for 30 min, 10 ng/ml EGF for 10 min (FIG. 8)", "description": "The cells employed for this assay were NR6 wtEGFR cells, which are fibroblastoid cells stably transfected with ErbB1, and human head and neck tumor-derived HN5 cell. Confluent NR6 wtEGFR or HN5 cells were treated with peptide in the indicated concentrations for 30 min, then stimulated with 10 ng/ml EGF (Sigma-Aldrich, St. Louis, Mo., USA) for 10 min. Cells were lysed in lysis buffer (1% (v/v) Triton X-100, 150 mM NaCl, 10 mM Tris pH 7.4, 1 mM EDTA, 1 mM EGTA, 0.5% (v/v) NP-40, phosphatase inhibitors (Phosphatase Inhibitor Cocktail Set II from Calbiochem, La Jolla, Calif., USA) and protease inhibitors (Complete™ Protease Inhibitor Cocktail from Boehringer Mannheim Biochemica, Mannheim, Germany)), and cleared lysate samples containing equal amounts of total protein (as determined by a bicinchoninic acid assay (Pierce, Rockford, Ill., USA)) were subjected in duplicates to 4-12% SDS-PAGE and immunoblotting. One membrane was probed with anti-phospho-EGFR (phosphotyrosine 1068) antibody (Cell Signaling Technology, Danvers, Mass., USA), the other with anti-EGFR antibody (Cell Signaling Technology). Detection was carried out using horseradish peroxidase (HRP)-conjugated secondary antibodies (DAKO, Denmark) and enhanced chemiluminiscence (Pierce). The intensity of bands was quantified using densitometric analysis employing the software package GeneTools (Syngene, Cambridge, UK)."}, "[4]": {"tested_on": "L929 cells", "test": "Cell proliferation (BrdU incorporation)", "format": "cell-based", "description": "2000 L929 cells (ECACC no: 85011425) per well were seeded in a 96 well plate in full medium (containing 10% foetal calf serum) or starvation medium (serum-free). Peptides, ErbB1 kinase inhibitor PD153035 (Calbiochem), and EGF (Sigma-Aldrich) were added immediately after seeding of the cells (for experiments done in full serum) or after 8 hours of incubation (for experiments done in starvation medium) in the concentrations indicated in figures. Cells were grown for 6 hours, then 10 μM bromodeoxyuridine (BrdU) was added, and cells were grown for additional 18 hours. Then, BrdU incorporation in the cells was assayed using the Biotrak ELISA System, version 2 from Amersham Biosciences Europe GmbH (Buckinghamshire, UK) following the manufacturer's protocol."}, "[5]": {"tested_on": "L929 cells", "test": "Cell motility assay (time-lapse video recording)", "format": "cell-based", "description": "Subconfluent L929 cells were infected with Ad5.CMV-GFP virus according to the manufacturer instruction (Clontech). 24 h after transfection, cells were seeded at a density of 4×10^3 cells/cm^2 and grown for 24 h. Cells were then treated with the indicated concentration of peptide and EGF, and cell positions were recorded every 15 min at 25 fixed positions in each culture for 4 hours using automatic time-lapse video recording. The workstation employed comprised an Eclipse TE300 inverted microscope (Nikon, Japan) equipped with a heated, movable, computer controlled microscope stage. Recordings were performed using the PRIGRA software (developed at the Protein Laboratory, Copenhagen, Denmark).\nAnalysis of individual cell motility was performed using an automatic procedure for single cell motility evaluation. Briefly, automatic marking of cell positions in consecutive video frames was used for determination of the migration tracks of the cells during the whole recording period. The obtained cell coordinate data were used for the calculation of motility parameters by means of the ‘complex overlapping’ method. Briefly, the mean squared cell displacement, ? d^2 ? , was calculated as the Euclidean distance between two points corresponding to the initial and final position of the cell. The rate of diffusion, R, was calculated by fitting the curve of ? d^2 ? plotted against time to the equation ? d^2(ti) ? =R(τ−P(1−e^(−τ/P))), • where ti is the time interval of interest, τ is the time interval between observations, i.e. 15 min, and P is the persistence time in direction (28). The mean cell speed, Sτ, was calculated as the mean cell displacement taking place between discrete observations ( ? dτ ? ) divided by the time interval between discrete observations (τ), according to the equation:\n[formula] • The mean cell-path-length, ? L ? , for a sample of a population of cells at a given time of observation, was calculated as:\n[formula] • The locomotive index, LI, was calculated as the ratio of the mean cell displacement and the mean cell-path-length:\n[formula] LI was used as a measure of the directional persistence of the cells."}},
  "data": [
    {"sequence": "LVYNKLTFQLEPNPHTK (Inherbin 3 peptide) [Inherbin3]", "values": [
      {"measurement": "effect on EGF-induced ErbB1 phosphorylation", "setting": "[1]", "result": "inhibited EGF-induced ErbB1 phosphorylation significantly"},
      {"measurement": "effect on serum-induced cell growth", "setting": "[2]; full medium containing 10% serum (FIG. 6B)", "result": "inhibited serum-induced cell growth"},
      {"measurement": "inhibition of the EGF-induced increase in cell growth", "setting": "[2]; starvation medium, EGF-stimulated, 3 days, MTS (FIG. 6A)", "result": "~35", "unit": "%"},
      {"measurement": "effect on basal cell growth", "setting": "[2]; starvation medium, without EGF-stimulation (FIG. 6A)", "result": "no effect on the basal cell growth"},
      {"measurement": "effect on EGF-induced ErbB1 phosphorylation", "setting": "[3]", "result": "significantly inhibited EGF-induced ErbB1 phosphorylation"},
      {"measurement": "effect on EGF-induced cell proliferation", "setting": "[4]; L929 cells, full medium, BrdU incorporation (FIG. 2, FIG. 3)", "result": "able to inhibit EGF-induced cell proliferation significantly"},
      {"measurement": "inhibition of the EGF-induced effects", "setting": "[4]; summary for cell proliferation, cell motility and ErbB1 phosphorylation in cells with a lower ErbB1 expression level", "result": "~100", "unit": "%"},
      {"measurement": "effect on mean cell speed", "setting": "[5]; L929 cells (FIG. 5C)", "result": "did not significantly affect the mean cell speed"},
      {"measurement": "effect on locomotive index, LI", "setting": "[5]; L929 cells (FIG. 5D)", "result": "reflected the changes seen in rate of diffusion"},
      {"measurement": "effect on rate of diffusion, R", "setting": "[5]; L929 cells, absence of EGF, peptide dose 10 μM (FIG. 5B)", "result": "stimulated the rate of diffusion to the level of the EGF-induced response"},
      {"measurement": "effect on EGF-induced increase in rate of diffusion, R", "setting": "[5]; L929 cells, with EGF (FIG. 5B)", "result": "significantly inhibited"},
      {"measurement": "effect on EGF-induced increase in rate of diffusion, R", "setting": "[5]; L929 cells, with EGF, peptide dose 40 μM (FIG. 5B)", "result": "completely blocked the EGF-induced increase in rate of diffusion"}
    ]}
  ]
}
